Results as given in patent publication US5496834A, “Lactol derivatives, their production and use” (Takeda Chemical Industries, Ltd., priority 1993, dated 1996).
Numbered stars: 1 amine (or outer) side, 2 acyl side, 3 side chain; on linkers, the order of the positions; unused ones are H or OH. Peptide text beside a SMILES is read from it. CO = O=C([*:1])[*:2]

What was measured:
human cathepsin L = target: T1, human cathepsin L (Homo sapiens, UniProt P07711); assay: human cathepsin L inhibitory action; format: biochemical; settings: recombinant human cathepsin L, substrate Z-Phe-Arg-NMec, pH 5.5, 30° C., 10 minutes
T1 construct: made in house
T1 sequence (P07711 114-333): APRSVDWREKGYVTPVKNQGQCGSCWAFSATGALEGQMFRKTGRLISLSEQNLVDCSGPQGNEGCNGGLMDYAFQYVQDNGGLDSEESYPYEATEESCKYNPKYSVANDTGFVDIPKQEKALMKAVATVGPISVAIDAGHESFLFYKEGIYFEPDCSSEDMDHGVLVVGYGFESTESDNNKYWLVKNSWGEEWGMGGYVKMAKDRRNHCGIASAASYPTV
Description: The recombinant human cathepsin L obtained by the procedure described in Example 8 of the specification of EPC 931098792 (European Publication No. 0576953 A2) (which is incorporated herein by reference) was diluted to 1 μg/ml with a diluent (0.1% Brij35, Sigma). This diluted enzyme solution was admixed with 46 μl of said diluent, 2 μl of 0.1M DTT and 25 μl of an activator/buffer (340 mM sodium acetate, 60 mM acetic acid, 4 mM EDTA disodium, pH 5.5). Then, 1 μl of a solution of the test compound in dimethyl sulfoxide (DMSO) (10 ^-2 M) and 25 μl of 20 μM Z-phe-Arg-NMec (substrate solution) were added. The mixture was incubated at 30° C. for 10 minutes, after which 100 μl of a reaction stopper (100 mM sodium monochloroacetate, 30 mM sodium acetate, pH 4.3) was added. This reaction was carried out on a 96-well Fluoroplate (Labosystems).
After termination of the reaction, the intensity of fluorescence of liberated aminomethylcoumarin at 450 nm was measured at an excitation wavelength of 365 nm. As a blank experiment, 1 μl of DMSO not containing the test compound was added and the intensity of fluorescence after the reaction was taken as 100% activity. For a sample showing a residual activity of 10% or less, a further diluted solution was used to determine the residual activity by the same procedure as above. Then, IC50 values were calculated.

[1] = test system: bone (antebrachial bones: radii, cubiti); assay: bone resorption inhibitory action (45Ca release from cultured fetal rat bones); format: cell-based, Sprague-Dawley rat; settings: 48 h, 2 days culture, mean of 5 bone pieces, lower = stronger inhibition, read-out: Bone resorption Inhibitory Activity [45Ca release (Percent to control)]; for activity at 10 µM: concentration 10 μM, p<0.05, p<0.01, ***, p<0.001 vs. control; for activity at 30 µM: concentration 30 μM, p<0.05, p<0.01 vs. control
Description: Bone resorption inhibitory activity was assayed by the method of Raisz [J. Clin. Invest. 44, 103-116 (1965) which is incorporated herein by reference]. Thus, a Sprague-Dawley rat on day 18 of gestation was subcutaneously dosed with 50 μCi of ^45 Ca (an isotope of calcium, dissolved in CaCl2). The following day, the abdomen was opened and the fetuses were aseptically extracted. Under the dissecting microscope, the bilateral antebrachial bones (radii, cubiti) were separated from the carcass and the connective tissues and cartilages were removed as far as possible to prepare bone culture specimens. Each of these bone specimens was put in 0.6 ml of BGJb medium (Fitton-Jackson modification; GIBCO Laboratories, USA) supplemented with bovine serum albumin (final concentration 2 mg/ml) and incubated at 37° C. for 24 hours. This bone was further cultured in the same medium containing the test compound (final concentration 10 μM or 30 μM) for 2 days. The percent ratio (%) of ^45 Ca released from the bone to the medium was calculated from the radioactivity count in the medium and that in the bone by means of the following equation. [formula]
As a control group, the bones from a fetus of the same litter were similarly cultured for 2 days. The mean ± standard deviation was calculated for 5 bone pieces per group and the percentage (%) of this value relative to the value of the control group was calculated.

mice = assay: oral toxicity in mice; format: in vivo; settings: 500 mg/kg
From the text: Moreover, its toxic potential is low. […] Therefore, the compound (Ia) or (Ib) of this invention can be used in the prophylaxis and therapy of osteoporosis in mammalian animals (e.g. mouse, rat, rabbit, dog, cat, cattle, swine and man).

cathepsin L = settings: reported as one of their inhibition activities; cited from earlier work

IC50 (human cathepsin L) [nM]	SMILES	activity at 10 µM [1] [%]	also measured
57	CC[C@H](C)[C@H](NS(=O)(=O)c1cccc2ccccc12)C(=O)N[C@H]1CCOC1O (stereo partly drawn) [Example 4]	–	–
8	O=C(N[C@@H](Cc1ccccc1)C(=O)N[C@H]1CCOC1O)OCc1ccccc1 (stereo partly drawn) [Example 5]	–	–
30	CC(C)[C@H](NC(=O)OCc1ccccc1)C(=O)N[C@H]1CCOC1O (stereo partly drawn) [Example 6]	–	–
32	CCCC(CCC)C(=O)N[C@H](C(=O)N[C@H]1CCOC1O)C(C)C (stereo partly drawn) [Example 12]	64	–
9.4	O=C(COc1ccccc1)N[C@@H](Cc1ccccc1)C(=O)N[C@H]1CCOC1O (stereo partly drawn) [Example 14]	–	–
–	CC(C)C[C@H](NC(=O)OCc1ccccc1)C(=O)N[C@H]1CCOC1O (stereo partly drawn) [Example 15]	26	–
–	CC(C)C[C@H](NC(=O)OCc1ccccc1)C(=O)N[C@@H](CC(C)C)C(=O)N[C@H]1CCOC1O (stereo partly drawn) [Example 16]	77	–
6.9	CC(C)C[C@H](NC(=O)Nc1cccc2ccccc12)C(=O)N[C@H]1CCOC1O (stereo partly drawn) [Example 17]	–	–
–	CC(C)C[C@H](NC(=S)Nc1cccc2ccccc12)C(=O)N[C@H]1CCOC1O (stereo partly drawn) [Example 21]	67	–
28	O=C(N[C@@H](Cc1ccccc1)C(=O)N[C@H]1CCCOC1O)OCc1ccccc1 (stereo partly drawn) [Example 23]	–	–
–	CC(=O)O[C@@H]1OCC[C@@H]1NC(=O)[C@H](CC(C)C)NC(=O)Nc1cccc2ccccc12 [Example 29, (2S,3S)-2-acetoxy-3-[[N-(1-naphthylcarbamoyl)-(L)-leucyl]amino]-tetrahydrofuran]	–	activity at 30 µM [1]: 67%
–	CC(C)C[C@H](NC(=O)Nc1cccc2ccccc12)C(=O)NC1CCOC1O (stereo partly drawn) [Example 32, 2-hydroxy-3-[[N-(1-naphthylcarbamoyl)-(L)-leucyl]amino]tetrahydrofuran]	–	activity at 30 µM [1]: 77%
–	CC(C)C[C@H](NS(=O)(=O)c1cccc2ccccc12)C(=O)N[C@H]1CCCOC1O (stereo partly drawn) [Example 35, (3S)-2-hydroxy-3-[[N-(1-naphthalenesulfonyl)-(L)-leucyl]amino]tetrahydropyran]	82	–
52	CC(C)C[C@H](NC(=O)OCc1ccccc1)C(=O)N[C@@H](CC(C)C)C(=O)N[C@H]1CCCOC1O (stereo partly drawn) [Example 38]	–	–
–	CCCC(CCC)C(=O)N[C@H](C(=O)N[C@H]1CCO[C@H]1OC(C)=O)C(C)C [Example 60]	–	deaths after oral administration (mice): killed no test animals
870	CC(=O)O[C@@H]1OCC[C@@H]1NC(=O)[C@H](CC(C)C)NC(=O)c1cccnc1 [Example 62]	–	–
690	CC(=O)O[C@@H]1OCC[C@@H]1NC(=O)[C@H](CC(C)C)NC(=O)c1ccccn1 [Example 64]	–	–
–	CCCC(CCC)C(=O)N[C@H](C(=O)N[C@H]1CCO[C@@H]1OC)C(C)C [Example 73, (2S,3S)-2-methoxy-3-[[N-valproyl-(L)-valyl]amino]tetrahydrofuran]	79	–
–	COC(=O)C[C@H](NC(=O)OCc1ccccc1)C(=O)N[C@H]1CCOC1OC (stereo partly drawn) [Example 74, (3S)-3-[[N-benzyloxycarbonyl-(L)-(3-methoxycarbonyl)alanyl]amino] -2-methoxytetrahydrofuran]	78	–
190	COC1OCC[C@@H]1NC(=O)[C@H](CC(C)C)NC(=O)Nc1cccc2ccccc12 (stereo partly drawn) [Example 89, (3S)-2-methoxy-3-[[N-(1-naphthylcarbamoyl)-(L)-leucyl]amino]-tetrahydrofuran]	–	–
–	CC(C)[C@H](NC(=O)[C@H](CCCNC(=N)N)NC(=O)N[C@@H](Cc1ccccc1)C(=O)O)C(=O)N[C@H](C=O)CCCNC(=N)N [antipain] ({Phe-CO}-Arg-Val-Arg-aldehyde)	–	cathepsin L inhibitory activity (cathepsin L): cathepsin L inhibitory activity
–	CC(=O)N[C@@H](CC(C)C)C(=O)N[C@@H](CC(C)C)C(=O)N[C@H](C=O)CCCNC(=N)N [leupeptin]	–	cathepsin L inhibitory activity (cathepsin L): cathepsin L inhibitory activity

SMILES	IC50 (human cathepsin L) [nM]	activity at 10 µM [1] [%]	also measured
CC(C)(C)OC(=O)N[C@@H](Cc1ccccc1)C(=O)N[C@H]1CCOC1O (stereo partly drawn) [Example 1, (3S)-3-[[N-tert-butoxycarbonyl-(L)-phenylalanyl]amino]-2-hydroxytetrahydrofuran]	30	–	–
CC(=O)OC1OCC[C@@H]1NC(=O)[C@@H](NC(=O)OCc1ccccc1)C(C)C (stereo partly drawn) [Example 25, (3S)-2-acetoxy-3-[[N-benzyloxycarbonyl-(L)-valyl]amino]tetrahydrofuran]	450	75	–
CCOP(=O)(Cc1ccc(C(=O)N[C@@H](CC(C)C)C(=O)N[C@H]2CCOC2O)cc1)OCC (stereo partly drawn) [Example 42]	29	–	–
